Paper PMC10332445 (Journal of medicinal chemistry, 2023)

Experiments:
Mino cells [1] = assay: Cell viability, CellTiter-Glo 2.0, Mino cells; assay type: cell-based; conditions: read-out: Mino Cells IC50, 48 h (Figure 6) or 72 h (method)
GSPT1 = GSPT1 (Homo sapiens, UniProt P15170); assay: Label-free proteomics in TMD8 cells: GSPT1; assay type: cell-based; conditions: 111 nM, 6 h
TMD8 cells [2] = assay: Cell viability, CellTiter-Glo 2.0, TMD8 cells; assay type: cell-based; conditions: read-out: TMD8 Cells IC50, 48 h
IKZF1 and IKZF3 = assay: Label-free proteomics in TMD8 cells: neo-substrates IKZF1/3; assay type: cell-based, human; conditions: 111 nM, 6 h
[3] = tested on: CSK, SYK, FRK, HCK, LYN, BAZ1B, TYK2, and Fes/Fps; assay: Label-free proteomics in TMD8 cells: other kinases; assay type: cell-based, human; conditions: 111 nM, 6 h
BTK [4] = biological target: T1, BTK (Homo sapiens, UniProt Q06187); assay: BTK degradation in Ramos cells by western blot; assay type: cell-based; conditions: for BTK degradation by parent molecules: GDC-0853 and/or pomalidomide, 3000 nM to 0.15 nM, Figure S2
T1 sequence (Q06187 whole entry): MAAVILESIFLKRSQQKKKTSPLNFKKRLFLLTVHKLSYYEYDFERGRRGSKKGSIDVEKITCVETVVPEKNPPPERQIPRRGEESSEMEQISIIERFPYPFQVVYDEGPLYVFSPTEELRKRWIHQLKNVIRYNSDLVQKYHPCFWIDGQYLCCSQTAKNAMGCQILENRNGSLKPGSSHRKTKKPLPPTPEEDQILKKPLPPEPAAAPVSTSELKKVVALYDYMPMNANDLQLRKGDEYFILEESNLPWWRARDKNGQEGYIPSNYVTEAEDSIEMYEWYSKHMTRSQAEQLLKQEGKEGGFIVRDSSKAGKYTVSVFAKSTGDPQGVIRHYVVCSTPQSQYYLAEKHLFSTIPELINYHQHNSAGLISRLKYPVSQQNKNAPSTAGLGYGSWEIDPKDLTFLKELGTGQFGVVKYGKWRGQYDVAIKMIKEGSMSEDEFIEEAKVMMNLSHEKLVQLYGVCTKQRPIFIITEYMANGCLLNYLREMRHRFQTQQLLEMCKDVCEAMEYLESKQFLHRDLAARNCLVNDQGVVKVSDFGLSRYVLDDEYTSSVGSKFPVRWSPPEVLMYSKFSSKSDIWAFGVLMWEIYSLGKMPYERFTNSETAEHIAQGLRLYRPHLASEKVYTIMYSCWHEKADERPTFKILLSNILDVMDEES

BCR signaling pathway = BCR signaling pathway western blots in TMD8 and Mino cells; assay type: cell-based; conditions: 48 h, stimulated with anti-human IgM
TMD8 cells [5] = assay: Apoptosis by Annexin-V/PI flow cytometry, TMD8 cells; assay type: cell-based; conditions: 48 h; for Induction of apoptosis: TMD8 cells, 3000 nM to 0.15 nM
Mino cells [6] = assay: Apoptosis by Annexin-V/PI flow cytometry, Mino cells; assay type: cell-based; conditions: 48 h, 3000 nM to 0.15 nM
BTK [7] = biological target: T1, BTK; assay: BTK degradation in seven B-cell malignant cell lines; assay type: cell-based; conditions: Figure S4
[8] = tested on: caspase-3, PARP, Bcl-2, Mcl-1; assay: Apoptosis pathway proteins by western blot in TMD8 and Mino cells; assay type: cell-based; conditions: 48 h
CRBN = CRBN (Homo sapiens, UniProt Q96SW2); assay: NanoBRET live-cell target engagement of CRBN in HEK293 cells; assay type: cell-based; conditions: number in parentheses, 37 °C
CRBN, sequence (Q96SW2 whole entry): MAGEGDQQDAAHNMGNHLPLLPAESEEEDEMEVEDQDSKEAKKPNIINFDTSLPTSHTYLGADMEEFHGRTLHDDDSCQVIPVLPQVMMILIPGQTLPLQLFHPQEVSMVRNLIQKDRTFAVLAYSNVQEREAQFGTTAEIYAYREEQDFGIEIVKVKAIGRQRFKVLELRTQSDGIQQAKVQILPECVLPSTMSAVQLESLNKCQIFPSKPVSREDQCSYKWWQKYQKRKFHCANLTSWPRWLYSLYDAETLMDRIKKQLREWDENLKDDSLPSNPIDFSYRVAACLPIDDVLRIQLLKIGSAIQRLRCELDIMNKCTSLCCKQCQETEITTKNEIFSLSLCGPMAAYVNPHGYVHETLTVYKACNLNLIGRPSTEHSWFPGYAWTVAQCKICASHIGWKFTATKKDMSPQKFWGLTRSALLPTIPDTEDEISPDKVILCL

BTK [9] = biological target: T1, BTK; assay: NanoBRET live-cell target engagement of BTK in HEK293 cells; assay type: cell-based; conditions: for Hill slope, BTK target engagement: number in parentheses, 37 °C
[10] = biological target: ternary complex between BTK and CRBN (Homo sapiens, UniProt Q06187+Q96SW2); assay: NanoBRET ternary complex formation assay in HEK293 cells; assay type: cell-based; conditions: for Ternary complex formation (in words): live-cell NanoBRET
ternary complex between BTK and CRBN, sequence (Q06187 whole entry): as the sequence (Q06187 whole entry) above
ternary complex between BTK and CRBN, sequence (Q96SW2 whole entry): as the sequence (Q96SW2 whole entry) above

GSPT1, sequence (Q96SW2 whole entry partner): as the sequence (Q96SW2 whole entry) above
GSPT1, sequence (Q16531 whole entry partner): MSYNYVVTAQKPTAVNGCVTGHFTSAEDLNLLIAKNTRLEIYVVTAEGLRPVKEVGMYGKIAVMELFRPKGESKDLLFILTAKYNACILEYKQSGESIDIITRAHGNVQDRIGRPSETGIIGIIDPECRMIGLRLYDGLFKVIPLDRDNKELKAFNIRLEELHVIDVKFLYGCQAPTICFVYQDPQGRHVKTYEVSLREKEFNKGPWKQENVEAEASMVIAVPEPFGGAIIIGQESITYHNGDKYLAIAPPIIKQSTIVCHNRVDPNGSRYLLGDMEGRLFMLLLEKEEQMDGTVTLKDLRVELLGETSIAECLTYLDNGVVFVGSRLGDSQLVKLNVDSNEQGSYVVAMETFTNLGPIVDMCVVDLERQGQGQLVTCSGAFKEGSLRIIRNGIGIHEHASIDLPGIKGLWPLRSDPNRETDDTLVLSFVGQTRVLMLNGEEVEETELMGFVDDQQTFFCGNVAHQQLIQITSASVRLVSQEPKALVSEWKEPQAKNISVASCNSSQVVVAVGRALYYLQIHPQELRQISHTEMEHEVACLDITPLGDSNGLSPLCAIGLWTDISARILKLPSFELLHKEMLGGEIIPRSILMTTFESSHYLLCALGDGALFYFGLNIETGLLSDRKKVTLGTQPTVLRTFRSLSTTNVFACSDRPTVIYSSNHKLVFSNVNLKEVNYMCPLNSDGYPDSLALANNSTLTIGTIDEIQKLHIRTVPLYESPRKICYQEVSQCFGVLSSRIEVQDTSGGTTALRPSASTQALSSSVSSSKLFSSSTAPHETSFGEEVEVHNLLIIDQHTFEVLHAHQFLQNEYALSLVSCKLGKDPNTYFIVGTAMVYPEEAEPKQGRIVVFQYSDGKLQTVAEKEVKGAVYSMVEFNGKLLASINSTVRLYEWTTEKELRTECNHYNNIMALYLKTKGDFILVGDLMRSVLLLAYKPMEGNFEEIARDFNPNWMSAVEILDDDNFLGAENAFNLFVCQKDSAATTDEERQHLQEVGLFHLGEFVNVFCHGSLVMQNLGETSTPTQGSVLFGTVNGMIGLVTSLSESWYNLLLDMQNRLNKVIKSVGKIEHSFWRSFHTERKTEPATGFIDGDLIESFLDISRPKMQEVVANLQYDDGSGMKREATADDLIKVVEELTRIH
GSPT1, sequence (P15170 whole entry): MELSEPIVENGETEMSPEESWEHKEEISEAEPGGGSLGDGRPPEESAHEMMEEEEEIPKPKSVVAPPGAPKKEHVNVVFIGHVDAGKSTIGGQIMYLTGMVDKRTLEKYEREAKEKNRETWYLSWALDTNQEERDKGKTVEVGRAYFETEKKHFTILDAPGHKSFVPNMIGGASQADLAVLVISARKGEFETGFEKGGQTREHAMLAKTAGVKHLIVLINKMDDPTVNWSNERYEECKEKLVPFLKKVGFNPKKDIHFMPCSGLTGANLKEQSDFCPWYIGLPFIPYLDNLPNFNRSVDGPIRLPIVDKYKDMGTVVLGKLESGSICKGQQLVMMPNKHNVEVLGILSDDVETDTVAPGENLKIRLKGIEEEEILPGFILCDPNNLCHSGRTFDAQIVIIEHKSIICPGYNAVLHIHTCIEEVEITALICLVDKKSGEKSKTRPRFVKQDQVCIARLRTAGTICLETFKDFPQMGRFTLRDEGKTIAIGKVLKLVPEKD

Molecule	Effect on levels of GSPT1 (GSPT1)	Degradation of neo-substrates IKZF1 and IKZF3 (IKZF1 and IKZF3)	Effect on abundance of other kinases [3]	Induction of apoptosis (TMD8 cells [5])	Induction of apoptosis (Mino cells [6])	Hill slope, CRBN target engagement (CRBN)	Hill slope, BTK target engagement (BTK [9])	other results
4-((2-(2-(2-(2-azidoethoxy)ethoxy)ethoxy)ethyl)amino)-2-(2,6-dioxopiperidin-3-yl)isoindoline-1,3-dione [P13I, reference compound]	did not affect the levels	degrade	significant degradation of some off-targets, specifically, CSK and FRK					IC50 (Mino cells [1]): 10.4 ± 2.4 nM; IC50 (TMD8 cells [2]): 15 ± 2.8 nM
C[C@H]1CN(C2COC2)CCN1c1ccc(Nc2cc(-c3ccnc(N4CCn5c(cc6c5CC(C)(C)C6)C4=O)c3CO)cn(C)c2=O)nc1 [GDC-0853, fenebrutinib, reference compound]				a dose-dependent effect was observed	did not cause apoptosis			BTK degradation by parent molecules (BTK [4]; Ramos cells): no BTK degradation was observed; Effect on BCR signaling pathway (p-PLCγ2, p-BTK, p-AKT, p-NF-κB, PLCγ2, AKT, NF-κB) (BCR signaling pathway): less prominent
Cc1ncsc1-c1ccc(CNC(=O)[C@@H]2C[C@@H](O)CN2C(=O)[C@@H](NC(=O)COCCOCCCCCCC(=O)N2CCN(c3ccc(Nc4cc(-c5ccnc(N6CCn7c(cc8c7CC(C)(C)C8)C6=O)c5CO)cn(C)c4=O)nc3)[C@@H](C)C2)C(C)(C)C)cc1 [PTD3, (2S,4R)-1-((S)-2-(2-(2-((7-((S)-4-(6-((2’-(7,7-dimethyl-1-oxo-1,3,4,6,7,8-hexahydro-2H-cyclopenta[4,5]pyrrolo[1,2-a]pyrazin-2-yl)-3’-(hydroxymethyl)-1-methyl-6-oxo-1,6-dihydro-[3,4’-bipyridin]-5-yl)amino)pyridin-3-yl)-3-methylpiperazin-1-yl)-7-oxoheptyl)oxy)ethoxy)acetamido)-3,3-dimethylbutanoyl)-4-hydroxy-N-(4-(4-methylthiazol-5-yl)benzyl)pyrrolidine-2-carboxamide]								BTK degradation (VHL-based PROTAC) (BTK [4]; Ramos and JeKo-1 cell lines, 17 h, concentrations lower than 3000 nM, Figure S1): no degradation was observed
C[C@H]1CN(C(=O)CNc2cccc3c2C(=O)N(C2CCC(=O)NC2=O)C3=O)CCN1c1ccc(Nc2cc(-c3ccnc(N4CCn5c(cc6c5CC(C)(C)C6)C4=O)c3CO)cn(C)c2=O)nc1 (stereo partly drawn) [PTD10, 4-((2-((S)-4-(6-((2’-(7,7-dimethyl-1-oxo-1,3,4,6,7,8-hexahydro-2H-cyclopenta[4,5]pyrrolo[1,2-a]pyrazin-2-yl)-3’-(hydroxymethyl)-1-methyl-6-oxo-1,6-dihydro-[3,4’-bipyridin]-5-yl)amino)pyridin-3-yl)-3-methylpiperazin-1-yl)-2-oxoethyl)amino)-2-(2,6-dioxopiperidin-3-yl)isoindoline-1,3-dione]	did not affect the levels	degrade	did not affect the abundance of other kinases	induce apoptosis in a dose-dependent manner	induce apoptosis in a dose-dependent manner	1.0	1.9	BTK degradation in B-cell malignant cell lines (BTK [7]): potent degradation effects; Concentration at which Hook effect was observed (BTK [4]; BTK degradation, Figure 3): > 333 nM; BTK degradation on co-treatment with competitor (BTK [4]; Ramos cells, 111 nM PTD10 with 1 μM GDC-0853 or 20 μM iberdomide (CC-220), 17 h): BTK degradation was completely blocked; BTK degradation after pre-treatment with bortezomib or MLN-4924 (BTK [4]; Ramos cells, pre-treated 2 h, then 111 nM PTD10 for 4 h): inhibition of BTK degradation; Effect on BCR signaling pathway (p-PLCγ2, p-BTK, p-AKT, p-NF-κB, PLCγ2, AKT, NF-κB) (BCR signaling pathway): Robust downregulation was observed; Levels of Bcl-2 and Mcl-1 [8]: significant down-regulation; Levels of cleaved-PARP and cleaved caspase-3 [8]: increase; Concentration at which robust apoptosis was detected (TMD8 cells [5]; TMD8 and Mino cell lines): 333 nM; Ternary complex formation (in words) [10]: prominent ternary complex formation; Ternary Complex Formation (maximum) ([10]; maximum ternary complex formation setting the BRET ratio for PTD10 at 100%): 100%
C[C@H]1CN(C(=O)CNc2cccc3c2CN(C2CCC(=O)NC2=O)C3=O)CCN1c1ccc(Nc2cc(-c3ccnc(N4CCn5c(cc6c5CC(C)(C)C6)C4=O)c3CO)cn(C)c2=O)nc1 (stereo partly drawn) [PTD12, 3-(4-((2-((S)-4-(6-((2’-(7,7-dimethyl-1-oxo-1,3,4,6,7,8-hexahydro-2H-cyclopenta[4,5]pyrrolo[1,2-a]pyrazin-2-yl)-3’-(hydroxymethyl)-1-methyl-6-oxo-1,6-dihydro-[3,4’-bipyridin]-5-yl)amino)pyridin-3-yl)-3-methylpiperazin-1-yl)-2-oxoethyl)amino)-1-oxoisoindolin-2-yl)piperidine-2,6-dione]								Decrease in degradation activity compared to PTD10 (BTK [4]; DC50 ratio): ~ 8 fold
C[C@H]1CN(C(=O)c2cccc3c2C(=O)N(C2CCC(=O)NC2=O)C3=O)CCN1c1ccc(Nc2cc(-c3ccnc(N4CCn5c(cc6c5CC(C)(C)C6)C4=O)c3CO)cn(C)c2=O)nc1 (stereo partly drawn) [PTD13, 4-((S)-4-(6-((2’-(7,7-dimethyl-1-oxo-1,3,4,6,7,8-hexahydro-2H-cyclopenta[4,5]pyrrolo[1,2-a]pyrazin-2-yl)-3’-(hydroxymethyl)-1-methyl-6-oxo-1,6-dihydro-[3,4’-bipyridin]-5-yl)amino)pyridin-3-yl)-3-methylpiperazine-1-carbonyl)-2-(2,6-dioxopiperidin-3-yl)isoindoline-1,3-dione]						1.0	1.4	Ternary complex formation (in words) [10]: no ternary complex was observed
C[C@H]1CN(C(=O)COc2cccc3c2C(=O)N(C2CCC(=O)NC2=O)C3=O)CCN1c1ccc(Nc2cc(-c3ccnc(N4CCn5c(cc6c5CC(C)(C)C6)C4=O)c3CO)cn(C)c2=O)nc1 (stereo partly drawn) [PTD14, 4-(2-((S)-4-(6-((2’-(7,7-dimethyl-1-oxo-1,3,4,6,7,8-hexahydro-2H-cyclopenta[4,5]pyrrolo[1,2-a]pyrazin-2-yl)-3’-(hydroxymethyl)-1-methyl-6-oxo-1,6-dihydro-[3,4’-bipyridin]-5-yl)amino)pyridin-3-yl)-3-methylpiperazin-1-yl)-2-oxoethoxy)-2-(2,6-dioxopiperidin-3-yl)isoindoline-1,3-dione]	did not affect the levels	no degradation	did not affect the abundance of other kinases					
C[C@H]1CN(C(=O)CCCCCCCCCCCNc2cccc3c2C(=O)N(C2CCC(=O)NC2=O)C3=O)CCN1c1ccc(Nc2cc(-c3ccnc(N4CCn5c(cc6c5CC(C)(C)C6)C4=O)c3CO)cn(C)c2=O)nc1 (stereo partly drawn) [PTD15, 4-((12-((S)-4-(6-((2’-(7,7-dimethyl-1-oxo-1,3,4,6,7,8-hexahydro-2H-cyclopenta[4,5]pyrrolo[1,2-a]pyrazin-2-yl)-3’-(hydroxymethyl)-1-methyl-6-oxo-1,6-dihydro-[3,4’-bipyridin]-5-yl)amino)pyridin-3-yl)-3-methylpiperazin-1-yl)-12-oxododecyl)amino)-2-(2,6-dioxopiperidin-3-yl)isoindoline-1,3-dione]						0.5	1.3	Fold less potent than GDC-0853 at engaging BTK (BTK [9]; NanoBRET): 250 fold
Nc1cccc2c1C(=O)N(C1CCC(=O)NC1=O)C2=O (stereo not shown) [Pomalidomide, pomalidomide, reference compound]				little effect	induced apoptosis in Mino cells in a dose-dependent manner			BTK degradation by parent molecules (BTK [4]; Ramos cells): no BTK degradation was observed
